The values that follow come from patent US5552384A, “Antiherpes compositions and method of use” (priority 1990, dated 1996).

For data set [1] the following is noted: in vivo; cited from earlier work.
For the next data set, the system named is HSV-2. In words: microbe, parasite or virus in culture. Format: cell-based, HSV-2 (strain HG-52). The procedure: BHK-21/C13 cells (ATCC CCL 10) are incubated for two days in 150 cm^2 T-flasks (1.5×10^6 cells/flask) with alpha-MEM medium (Gibco Canada Inc., Burlington, Ontario, Canada) supplemented with 8% (v/v) fetal bovine serum (FBS, Gibco Canada Inc.). The cells are trypsinized and then transferred to fresh media in a 24 well plate to give 2.5×10^5 cells in 750 μL of media per well. The cells are incubated at 37° C. for a period of 6 hours to allow them to adhere to the plate. Thereafter, the cells are washed once with 500 μL of alpha-MEM supplemented with 0.5% (v/v) FBS and then incubated with 750 μL of the same media (low serum) for 3 days. After this period of serum starvation, the low serum medium is removed and the cells are incubated in 500 μL of BBMT for 2 to 3 hours. [BBMT medium is described by P. Brazeau et al., Proc. Natl. Acad. Sci. USA, 79, 7909 (1982).] Thereafter, the cells are infected with HSV-2 (multiplicity of infection=0.02 PFU/cell) in 100 μL of BBMT medium. (Note: The HSV-2 used was strain HG-52, see Y. Langelier and G. Buttin, J. Gen. Virol., 57, 21 (1981); the virus was stored at -80° C.) Following 1 hour of virus adsorption at 37° C., the media is removed and the cells are washed with BBMT (3×250 μL). The cells in each well are incubated with or without (control) appropriate concentrations of the test agent dissolved in 200 μL of BBMT medium. After 29 hours of incubation at 37° C., the infected cells are harvested by first freezing the plate at -80° C., followed by thawing. The cells in each well are scraped off the surface of the well with the help of the melting ice fragments. After complete thawing, the cell suspensions are collected and each well is rinsed with 150 μL of BBMT medium. The viral sample (suspension plus washing) is sonicated gently for 4 minutes at 4° C. Cell debris are removed by centrifugation (1000 times gravity for 10 minutes at 4° C.). The supernatant is collected and stored at -80° C. until determination of viral titer.
Viral titration was performed by a modification of the colorimetric assay method of M. Langlois et al., Journal of Biological Standardization, 14, 201 (1986).
More specifically, in a similar manner as described above, BHK-21/C13 cells are trypsinized and transferred to fresh media in a 96 well microtiter plate to give 20,000 cells in 100 μL of media per well. The cells in the prepared plate are incubated at 37° C. for 2 hours. During that time, the viral sample is thawed and sonicated gently for 15 seconds, and log dilutions of the sample are prepared (1/5 sequential: 50 μL of the sample plus 200 μL of BBMT medium, sequential dilutions being done with a multichannel pipette.
On completion of the above 2 hour incubation of the BHK-21/C13 cells, the media is replaced with alpha-MEM medium supplemented with 3% (v/v) FBS. The cells are now ready to be infected with the various sample dilutions of virus. Aliquots (50 μL) of the various dilutions are transferred into the appropriate wells of the plate. The resulting infected cells are incubated for 2 days at 37° C. Then 50 μL of a 0.15% (v/v) solution of neutral red dye in Hank's Balanced Salt Solution (pH 7.3, Gibco Canada Inc.) is added to each well. The prepared plate is incubated for 45 minutes at 37° C. Medium from each well is then aspirated and the cells are washed once with 200 μL of Hank's Balanced Salt Solution. After the wash, the dye is released from the cells by the addition of 100 μL of a 1:1 mixture of 0.1M Sorensen's citrate buffer (pH 4.2) and ethanol. [Sorensen's citrate buffer is prepared as follows: Firstly, a 0.1M disodium citrate solution is prepared by dissolving citric acid monohydrate (21 g) in 1N aqueous NaOH (200 mL) and adding sufficient filtered H2 O to make 1 L. Secondly, the 0.1M disodium citrate solution (61.2 mL) is mixed with 0.1N aqueous HCl (38.8 mL) and the pH of the resulting solution is adjusted to 4.2 if necessary.] […]

Read-outs that look alike come from different tables or passages of the source. Square brackets hold non-standard residues; d marks the D form. Peptide text beside a SMILES is read from it. * marks the point of attachment. Asp(3,3-(CH2)4) = N[C@H](C(=O)O)C1(C(=O)O)CCCC1; Leu(γ-Me)ol = CC(C)(C)C[C@@H](CO)N*; Hydrocinnamoyl = O=C(CCc1ccccc1)*; Tle = CC(C)(C)[C@H](N)C(=O)O; NMeV = CN[C@H](C(=O)O)C(C)C; Pyrrolidide = C1CCN(*)C1

As for `Nc1nc2c(ncn2COCCO)c(=O)[nH]1` [acyclovir, 9-[(2-hydroxyethoxy)methyl]guanine], the side effects entry in data set [1] was “skin rashes and renal impairment”. Besides, the IC50 in the data set on HSV-2 (Human alphaherpesvirus 2, BHK21 (C13), 29 h, agent alone, HSV-2 in BHK-21/C13 cells, 29 hours incubation, read-out: IC50, concentration causing 50% inhibition of virus replication) came to 1800 nM; in the data set with HSV-2 (Human alphaherpesvirus 2, BHK21 (C13), +20 μM of peptide, HSV-2 in BHK-21/C13 cells, read-out: IC50 of acyclovir) it was 700 nM; in the data set on HSV-2 (Human alphaherpesvirus 2, BHK21 (C13), +30 μM of peptide, HSV-2 in BHK-21/C13 cells, read-out: IC50 of acyclovir) it was 500 nM; in the data set on HSV-2 (Human alphaherpesvirus 2, BHK21 (C13), +40 μM of peptide, HSV-2 in BHK-21/C13 cells, read-out: IC50 of acyclovir), 110 nM; in the data set with HSV-2 (Human alphaherpesvirus 2, BHK21 (C13), +50 μM of peptide, HSV-2 in BHK-21/C13 cells, read-out: IC50 of acyclovir), 90 nM.

In the data set on HSV-2 (29 h), `CC(C)[C@@H](C(=O)N[C@H](C(=O)N[C@@H](CC(=O)N1CCCC1)C(=O)N[C@H](C(=O)N[C@H](CO)CC(C)(C)C)C1(C(=O)O)CCCC1)C(C)(C)C)N(C)C(=O)CCc1ccccc1` [peptide, PhCH2 CH2 CO--N-Me-Val-Tbg-Asp(pyrrolidino)-Asp(cyPn)-{(S)-NHCH[CH2 C(CH3)3 ]CH2 OH}] (Hydrocinnamoyl-[NMeV][Tle]D(Pyrrolidide)[Asp(3,3-(CH2)4)]-{Leu(γ-Me)ol}) registered an IC50 of 80000 nM.
